Source: EP0803251B1, “Immediate release pH-independent solid dosage form of cisapride” (JANSSEN PHARMACEUTICA N.V., priority 1996, dated 1997)

Assays:
[1] = clinical; conditions: in vivo; for tmax: po
Procedure: A standard breakfast consists of four slices of bread, one slice of ham, one slice of cheese, butter, jelly and two cups of coffee or tea with if desired milk and/or sugar, was served. […] Thereafter, subjects could resume their usual diet.
The trial medication was taken with 100 ml water.
Blood samples were taken until 48 h post-dosing.
AUClast area under the plasma concentration-time curve from time 0 to the last time point (last quantifiable concentration, calculated by linear trapezoidal summation. AUC∞ area under the plasma concentration-time extrapolated to infinity t½term terminal half-life, defined as 0.693/Sz

[2] = Dissolution of tablets at different pH-values, USP test <711>, USP-2 dissolution apparatus (paddle); format: physicochemical; conditions: conclusion in words
Procedure: The dissolution of tablets comprising cisapride-(L)-tartrate having the composition and prepared as described in Example 1 was compared with tablets comprising cisapride monohydrate instead of cisapride-(L)-tartrate (the rest of the composition and the preparation being the same) at different pH-values.
The test tablet was brought in a glass container containing 900 ml of the specified buffer at a temperature of 37 °C. The stirring is performed by a paddle at a rotational speed of 50 rpm (rotations per minute). This test is s set forth in USP test <711> in a USP-2 dissolution apparatus. This latter test is described in US Pharmacopeia XXII, pp 1578-1579. a) pH = ± 1.5 (HCl : 0.1 N)

[3] = Dissolution of salts of cisapride in artificial gastric juice; format: physicochemical
[4] = human, in vivo
Excerpt: (AUC is the abbreviation of Area Under the Curve, which is an indication of the amount of active ingredient that is present in the blood).

[5] = formulations containing cisapride-(L)-tartrate release cisapride in a racemic form; cited from earlier work

Q: Which tmax ([1]; human) does the source give for `COc1cc(N)c(Cl)cc1C(=O)NC1CCN(CCCOc2ccc(F)cc2)CC1OC` (racemic) [cisapride-(L)-tartrate] here?
A: 2.1 ± 0.7 h

Q: And the tmax ([1]; human, tmax)?
A: 1.4 ± 0.4 h

Q: What about the “bioequivalence of the tartrate and monohydrate formulations” value [1] of the same compound?
A: bioequivalent

Q: And the “bioequivalence with respect to the total exposure (AUC∞)” value [1]?
A: bioequivalence is demonstrated

Q: And the “influence of fed or fasting conditions on absorption, peak levels and total exposure” value [1]?
A: little influence

Q: And the “dissolution compared with cisapride monohydrate” value ([2]; 0.1 N HCl (pH = ± 1.5))?
A: comparable

Q: What about the “dissolution compared with cisapride monohydrate” value ([2]; pH 4.5) of the same compound?
A: clearly better

Q: What about the “dissolution compared with cisapride monohydrate” value ([2]; pH = 6.5) of the same compound?
A: clearly superior

Q: And the “dissolution in artificial gastric juice” value ([3]; compared with other salts of cisapride)?
A: better dissolution

Q: Which “dissolution compared with cisapride monohydrate” value ([3]; salt forms of cisapride) does the source give for `COc1cc(N)c(Cl)cc1C(=O)NC1CCN(CCCOc2ccc(F)cc2)CC1OC` (racemic) [reference compound] here?
A: dissolve slower than the cisapride monohydrate itself

Q: With `COc1cc(N)c(Cl)cc1C(=O)N[C@H]1CCN(CCCOc2ccc(F)cc2)C[C@H]1OC` (relative stereo) [cisapride monohydrate, cis-4-amino-5-chloro-N-[1-[3-(4-fluorophenoxy)propyl]-3-methoxy-4-piperidinyl]-2-methoxybenzamide, reference compound] as the compound, how does the “higher exposure of cisapride in comparison with the fasting conditions” value ([1]; human) read?
A: 29%

Q: What about the “higher peak levels of cisapride in comparison with the fasting conditions” value ([1]; human) of the same compound?
A: 33%

Q: What about the tmax ([1]; human) of the same compound?
A: 2.3 ± 0.6 h

Q: What about the tmax ([1]; human, tmax) of the same compound?
A: 1.7 ± 0.5 h

Q: And the “bioequivalence of the tartrate and monohydrate formulations” value [1]?
A: bioequivalent

Q: And the “ratio of AUC in fed state over AUC in fasted state” value [4]?
A: about 1.35

Q: Which “dissolution rates of the diastereomeric salt forms” value [5] does the source give for (+)-cisapride-(L)-tartrate here?
A: equal dissolution rates

Q: Which “dissolution rates of the diastereomeric salt forms” value [5] does the source give for (-)-cisapride-(L)-tartrate here?
A: equal dissolution rates
